Columns and labels:
[1] = biological target: EmCV Cap-dependent translation; assay: In vitro translation assay, FF-EmCV-Ren construct, cap-dependent (FF luciferase); assay type: biochemical, rabbit reticulocyte lysates
Outline: (§1)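 RRL + Translation Mix -Met/-Leu 1:1; cpd pre-inc 1 h RT; 0.1 μg RNA/well; 2 h 30° C; Dual-Glo reagent 1 → FF read, reagent 2 → Ren read, 10 min each. Counter-screen: cpd added post-translation.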

[2] = biological target: HCV cap-independent translation; assay: In vitro translation assay, FF-HCV-Ren construct, cap-independent (Ren luciferase); assay type: biochemical, rabbit reticulocyte lysates
Outline: as §1

[3] = biological target: EmCV Cap-independent translation; assay: In vitro translation assay, FF-EmCV-Ren construct, cap-independent (Ren luciferase); assay type: biochemical, rabbit reticulocyte lysates
Outline: as §1

A375 = assay: 48 h Cytotoxicity A375; assay type: cell-based; conditions: Homo sapiens, A-375
[4] = biological target: HCV cap-dependent translation; assay: In vitro translation assay, FF-HCV-Ren construct, cap-dependent (FF luciferase); assay type: biochemical, rabbit reticulocyte lysates
Outline: as §1

## O=C(/C=C/c1nc2cc(Cl)c(Cl)cc2[nH]1)c1c(-c2ccccc2)c2cc(Cl)ccc2[nH]c1=O [Compound 63, 6-Chloro-3-[3-(5,6-dichloro-1H-benzoimidazol-2-yl)-acryloyl]-4-phenyl-1H-quinolin-2-one]
[1]
  IC50: 2 to 10 µM
[2]
  IC50: 2 to 10 µM
[3]
  IC50: 2 to 10 µM
A375
  IC50: 2 to 10 µM
[4]
  IC50: 2 to 10 µM

## O=C(/C(Br)=C/c1cncc(F)c1)c1c(-c2ccccc2)c2cc(Cl)ccc2[nH]c1=O (single isomer, unassigned) [Compound 110, 3-[(2Z)-2-bromo-3-(5-fluoro(3-pyridyl))prop-2-enoyl]-6-chloro-4-phenylhydroquinolin-2-one]
[1]
  IC50: 2 to 10 µM
[2]
  IC50: 2 to 10 µM
[3]
  IC50: 2 to 10 µM
A375
  IC50: 2 to 10 µM
[4]
  IC50: 2 to 10 µM

## COc1cncc(/C=C/C(=O)c2c(-c3ccccc3)c3cc(Cl)ccc3[nH]c2=O)c1 [Compound 66, 3-[(2E)-3-(5-methoxy(3-pyridyl))prop-2-enoyl]-6-chloro-4-phenylhydroquinolin-2-one]
[1]
  IC50: 2 to 10 µM
[2]
  IC50: 2 to 10 µM
[3]
  IC50: 2 to 10 µM
A375
  IC50: < 2 µM
[4]
  IC50: 2 to 10 µM

## Cc1cncc(/C=C/C(=O)c2c(-c3ccccc3)c3cc(Cl)ccc3[nH]c2=O)c1 [Compound 74, 3-[(2E)-3-(5-methyl(3-pyridyl))prop-2-enoyl]-6-chloro-4-phenylhydroquinolin-2-one]
[1]
  IC50: 2 to 10 µM
[2]
  IC50: 2 to 10 µM
[3]
  IC50: 2 to 10 µM
A375
  IC50: < 2 µM
[4]
  IC50: 2 to 10 µM

## O=C(/C=C/c1nc2ccccc2n1Cc1ccccc1)c1c(-c2ccccc2)c2cc(Cl)ccc2[nH]c1=O [Compound 55, 3-[3-(1-Benzyl-1H-benzoimidazol-2-yl)-acryloyl]-6-chloro-4-phenyl-1H-quinolin-2-one]
[1]
  IC50: 2 to 10 µM
[2]
  IC50: 2 to 10 µM
[3]
  IC50: 2 to 10 µM
A375
  IC50: 2 to 10 µM
[4]
  IC50: 2 to 10 µM

## O=C(/C=C/c1cncc(F)c1)c1c(-c2cncc(Cl)c2)c2cc(Cl)ccc2[nH]c1=O [Compound 101, 3-[(2E)-3-(5-fluoro(3-pyridyl))prop-2-enoyl]-6-chloro-4-(5-chloro(3-pyridyl))hydroquinolin-2-one]
[1]
  IC50: 2 to 10 µM
[2]
  IC50: 10 to 20 µM
[3]
  IC50: 10 to 20 µM
A375
  IC50: 2 to 10 µM
[4]
  IC50: 10 to 20 µM

## O=C(CCc1nc2ccccc2[nH]1)c1c(-c2ccccc2)c2cc(Cl)ccc2[nH]c1=O [Compound 68, 3-(3-1H-Benzoimidazol-2-yl-propionyl)-6-chloro-4-phenyl-1H-quinolin-2-one]
[1]
  IC50: > 20 µM
[2]
  IC50: > 20 µM
[3]
  IC50: > 20 µM
A375
  IC50: > 20 µM
[4]
  IC50: > 20 µM

## O=C(/C=C/c1cncc(Cl)c1)c1c(-c2ccccc2)c2cc(Cl)ccc2[nH]c1=O [Compound 115, (E)-6-chloro-3-(3-(5-chloropyridin-3-yl)acryloyl)-4-phenylquinolin-2(1H)-one]
[1]
  IC50: 2 to 10 µM
[2]
  IC50: 2 to 10 µM
[3]
  IC50: 2 to 10 µM
A375
  IC50: < 2 µM
[4]
  IC50: 2 to 10 µM

## O=C(/C=C/c1cncc(F)c1)c1c(-c2ccc(Cl)cc2)c2cc(Cl)ccc2[nH]c1=O [Compound 81, 3-[(2E)-3-(5-fluoro(3-pyridyl))prop-2-enoyl]-6-chloro-4-(4-chlorophenyl)hydroquinolin-2-one]
[1]
  IC50: 2 to 10 µM
[2]
  IC50: 2 to 10 µM
[3]
  IC50: 2 to 10 µM
A375
  IC50: 2 to 10 µM
[4]
  IC50: 2 to 10 µM

## COc1ccc(-c2c(C(=O)/C=C/c3cncc(F)c3)c(=O)[nH]c3ccc(Cl)cc23)cc1 [Compound 79, 3-[(2E)-3-(5-fluoro(3-pyridyl))prop-2-enoyl]-6-chloro-4-(4-methoxyphenyl)hydroquinolin-2-one]
[1]
  IC50: 2 to 10 µM
[2]
  IC50: 2 to 10 µM
[3]
  IC50: 2 to 10 µM
A375
  IC50: < 2 µM
[4]
  IC50: 2 to 10 µM

## Cc1ccc(/C=C/C(=O)c2c(-c3ccccc3)c3cc(Cl)ccc3[nH]c2=O)cc1 [Compound 34, 6-Chloro-4-phenyl-3-(3-p-tolyl-acryloyl)-1H-quinolin-2-one]
[1]
  IC50: 10 to 20 µM
[2]
  IC50: 2 to 10 µM
[3]
  IC50: 2 to 10 µM
A375
  IC50: 2 to 10 µM
[4]
  IC50: 2 to 10 µM

## Cn1c(/C=C/C(=O)c2c(-c3ccccc3)c3cc(Cl)ccc3[nH]c2=O)nc2ccccc21 [Compound 53, 6-Chloro-3-[3-(1-methyl-1H-benzoimidazol-2-yl)-acryloyl]-4-phenyl-1H-quinolin-2-one]
[1]
  IC50: 2 to 10 µM
[2]
  IC50: 2 to 10 µM
[3]
  IC50: 2 to 10 µM
A375
  IC50: 2 to 10 µM
[4]
  IC50: 2 to 10 µM

## O=C(/C=C/c1cccnc1)c1c(-c2ccccc2)c2cc(Cl)ccc2[nH]c1=O [Compound 32, 6-Chloro-4-phenyl-3-(3-pyridin-3-yl-acryloyl)-1H-quinolin-2-one]
[1]
  IC50: 2 to 10 µM
[2]
  IC50: 2 to 10 µM
[3]
  IC50: 2 to 10 µM
A375
  IC50: < 2 µM
[4]
  IC50: 2 to 10 µM

## O=C(/C=C/c1ccc(Cl)s1)c1c(-c2ccccc2)c2cc(Cl)ccc2[nH]c1=O [Compound 113, 6-Chloro-3-[3-(5-chloro-thiophen-2-yl)-acryloyl]-4-phenyl-1H-quinolin-2-one]
[1]
  IC50: 2 to 10 µM
[2]
  IC50: 2 to 10 µM
[3]
  IC50: 2 to 10 µM
A375
  IC50: 2 to 10 µM
[4]
  IC50: 2 to 10 µM

## O=C(/C=C/c1ccncc1)c1c(-c2ccccc2)c2ccncc2[nH]c1=O [Compound 23, 4-Phenyl-3-(3-pyridin-4-yl-acryloyl)-1H-[1,7]naphthyridin-2-one]
[1]
  IC50: > 20 µM
[2]
  IC50: > 20 µM
[3]
  IC50: 10 to 20 µM
A375
  IC50: < 2 µM
[4]
  IC50: > 20 µM

## O=C(/C=C/c1cncnc1)c1c(-c2ccccc2)c2cc(Cl)ccc2[nH]c1=O [Compound 37, 6-Chloro-4-phenyl-3-(3-pyrimidin-5-yl-acryloyl)-1H-quinolin-2-one]
[1]
  IC50: 2 to 10 µM
[2]
  IC50: 2 to 10 µM
[3]
  IC50: 2 to 10 µM
A375
  IC50: 2 to 10 µM
[4]
  IC50: 2 to 10 µM

## O=C(/C=C/c1ccccn1)c1c(-c2cncc(Br)c2)c2cc(Cl)ccc2[nH]c1=O [Compound 104, 3-((2E)-3-(2-pyridyl)prop-2-enoyl)-4-(5-bromo(3-pyridyl))-6-chlorohydroquinolin-2-one]
[1]
  IC50: 2 to 10 µM
[2]
  IC50: 2 to 10 µM
[3]
  IC50: 2 to 10 µM
A375
  IC50: 2 to 10 µM
[4]
  IC50: 10 to 20 µM

## CCn1c(/C=C/C(=O)c2c(-c3ccccc3)c3cc(Cl)ccc3n(CC)c2=O)nc2ccccc21 [Compound 60, (E)-6-chloro-1-ethyl-3-(3-(1-ethyl-1H-benzo[d]imidazol-2-yl)acryloyl)-4-phenylquinolin-2(1H)-one]
[1]
  IC50: > 20 µM
[2]
  IC50: 10 to 20 µM
[3]
  IC50: > 20 µM
A375
  IC50: 2 to 10 µM
[4]
  IC50: 10 to 20 µM

## Cc1ccnc(-c2c(C(=O)/C=C/c3cncc(F)c3)c(=O)[nH]c3ccc(Cl)cc23)c1 [Compound 93, 3-[(2E)-3-(5-fluoro(3-pyridyl))prop-2-enoyl]-6-chloro-4-(4-methyl(2-pyridyl))hydroquinolin-2-one]
[1]
  IC50: > 20 µM
[2]
  IC50: > 20 µM
[3]
  IC50: 10 to 20 µM
A375
  IC50: < 2 µM
[4]
  IC50: > 20 µM

## O=C(/C=C/c1ccccn1)c1c(-c2ccc(OC(F)(F)F)cc2)c2cc(Cl)ccc2[nH]c1=O [Compound 88, 3-((2E)-3-(2-pyridyl)prop-2-enoyl)-6-chloro-4-[4-(trifluoromethoxy)phenyl]hydroquinolin-2-one]
[1]
  IC50: 2 to 10 µM
[2]
  IC50: 2 to 10 µM
[3]
  IC50: 2 to 10 µM
A375
  IC50: 2 to 10 µM
[4]
  IC50: 2 to 10 µM

## O=C(/C=C/c1nc2ccccc2[nH]1)c1c(-c2ccccn2)c2cc(Cl)ccc2[nH]c1=O [Compound 8, 3-(3-1H-Benzoimidazol-2-yl-acryloyl)-6-chloro-4-pyridin-2-yl-1H-quinolin-2-one]
[1]
  IC50: > 20 µM
[2]
  IC50: > 20 µM
[3]
  IC50: > 20 µM
A375
  IC50: 10 to 20 µM
[4]
  IC50: > 20 µM

## Cc1ccnc(/C=C/C(=O)c2c(-c3ccccc3)c3cc(Cl)ccc3[nH]c2=O)c1 [Compound 70, 3-[(2E)-3-(4-methyl(2-pyridyl))prop-2-enoyl]-6-chloro-4-phenylhydroquinolin-2-one]
[1]
  IC50: 2 to 10 µM
[2]
  IC50: 2 to 10 µM
[3]
  IC50: 2 to 10 µM
A375
  IC50: 2 to 10 µM
[4]
  IC50: 2 to 10 µM

## O=C(/C=C/c1ccc(F)cc1C(F)(F)F)c1c(-c2ccccc2)c2cc(Cl)ccc2[nH]c1=O [Compound 49, 6-Chloro-3-[3-(4-fluoro-2-trifluoromethyl-phenyl)-acryloyl]-4-phenyl-1H-quinolin-2-one]
[1]
  IC50: 2 to 10 µM
[2]
  IC50: 2 to 10 µM
[3]
  IC50: 2 to 10 µM
A375
  IC50: < 2 µM
[4]
  IC50: 2 to 10 µM

## CN(C)c1ccc(-c2c(C(=O)/C=C/c3ccccn3)c(=O)[nH]c3ccc(Cl)cc23)cc1 [Compound 108, 3-((2E)-3-(2-pyridyl)prop-2-enoyl)-4-[4-(dimethylamino)phenyl]-6-chlorohydroquinolin-2-one]
[1]
  IC50: 2 to 10 µM
[2]
  IC50: 2 to 10 µM
[3]
  IC50: 2 to 10 µM
A375
  IC50: 2 to 10 µM
[4]
  IC50: 10 to 20 µM

## Cn1ccnc1/C=C/C(=O)c1c(-c2ccccc2)c2cc(Cl)ccc2[nH]c1=O [Compound 45, 6-Chloro-3-[3-(1-methyl-1H-imidazol-2-yl)-acryloyl]-4-phenyl-1H-quinolin-2-one]
[1]
  IC50: 2 to 10 µM
[2]
  IC50: 2 to 10 µM
[3]
  IC50: 2 to 10 µM
A375
  IC50: 2 to 10 µM
[4]
  IC50: 10 to 20 µM

## Cc1cncc(-c2c(C(=O)/C=C/c3ccccn3)c(=O)[nH]c3ccc(Cl)cc23)c1 [Compound 96, 3-((2E)-3-(2-pyridyl)prop-2-enoyl)-6-chloro-4-(5-methyl(3-pyridyl))hydroquinolin-2-one]
[1]
  IC50: 10 to 20 µM
[2]
  IC50: 10 to 20 µM
[3]
  IC50: 2 to 10 µM
A375
  IC50: 2 to 10 µM
[4]
  IC50: > 20 µM

## COc1ccc(Cn2c(/C=C/C(=O)c3c(-c4ccccc4)c4cc(Cl)ccc4[nH]c3=O)nc3cc(Cl)ccc32)cc1 [Compound 54, (E)-6-chloro-3-(3-(5-chloro-1-(4-methoxybenzyl)-1H-benzo[d]imidazol-2-yl)acryloyl)-4-phenylquinolin-2(1H)-one]
[1]
  IC50: 2 to 10 µM
[2]
  IC50: 2 to 10 µM
[3]
  IC50: 2 to 10 µM
A375
  IC50: 2 to 10 µM
[4]
  IC50: 2 to 10 µM
